Measured values: ChEMBL document CHEMBL2406911, “Structure guided design of a series of sphingosine kinase (SphK) inhibitors” (Bioorg Med Chem Lett, 2013)

What was measured:
Sphingosine kinase 2 [1] = target: T1, Sphingosine kinase 2 (Homo sapiens, UniProt Q9NRA0)
T1 sequence (Q9NRA0 whole entry): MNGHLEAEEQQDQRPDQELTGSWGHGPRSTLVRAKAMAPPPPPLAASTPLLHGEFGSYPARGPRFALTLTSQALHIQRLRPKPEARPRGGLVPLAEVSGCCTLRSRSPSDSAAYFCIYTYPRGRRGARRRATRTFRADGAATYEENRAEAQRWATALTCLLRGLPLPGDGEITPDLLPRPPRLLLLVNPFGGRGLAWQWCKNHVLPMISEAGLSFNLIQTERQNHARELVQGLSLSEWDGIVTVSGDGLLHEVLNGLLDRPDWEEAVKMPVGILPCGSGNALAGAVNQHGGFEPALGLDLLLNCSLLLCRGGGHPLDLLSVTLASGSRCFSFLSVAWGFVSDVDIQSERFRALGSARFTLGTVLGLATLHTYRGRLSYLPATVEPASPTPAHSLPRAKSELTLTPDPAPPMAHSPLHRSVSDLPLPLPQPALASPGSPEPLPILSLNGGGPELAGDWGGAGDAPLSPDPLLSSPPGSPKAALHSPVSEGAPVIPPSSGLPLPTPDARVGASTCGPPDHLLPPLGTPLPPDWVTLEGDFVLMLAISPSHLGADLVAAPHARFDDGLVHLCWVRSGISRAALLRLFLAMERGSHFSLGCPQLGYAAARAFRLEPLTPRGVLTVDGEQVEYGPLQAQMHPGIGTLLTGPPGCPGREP
Description: Inhibition of purified human SphK2 assessed as inhibition of formation of [33P]-S1P after 50 mins by scintillation counting

Sphingosine kinase 1 [2] = target: T2, Sphingosine kinase 1 (Homo sapiens, UniProt Q9NYA1)
Description: Inhibition of purified human SphK1 assessed as inhibition of formation of [33P]-S1P after 50 mins by scintillation counting

Sphingosine kinase 1 [3] = target: T2, Sphingosine kinase 1; remark: listed apart in the source
Description: Inhibition of SphK1 in human WM266-4 cells assessed as inhibition of formation of [17C]-S1P formation after 20 mins by LC-MS analysis

[4] = Clearance in rat at 0.5 mg/kg, iv; assay type: ADME, organism-based; set-up: dose 0.5 mg/kg, route intravenous; conditions: in vivo
[5] = Fraction unbound in rat plasma by ultra-centrifugation method; assay type: ADME, cell-free
[6] = Mean residence time in rat at 0.5 mg/kg, iv; assay type: ADME, organism-based; set-up: dose 0.5 mg/kg, route intravenous; conditions: in vivo
Sphingosine kinase 1 [7] = target: Sphingosine kinase 1 (Mus musculus, UniProt Q8CI15); assay: Inhibition of mouse SphK1
[8] = Volume of distribution at steady state in rat at 0.5 mg/kg, iv; assay type: ADME, organism-based; set-up: dose 0.5 mg/kg, route intravenous; conditions: in vivo, read-out: Vdss
Sphingosine kinase 2 [9] = target: T3, Sphingosine kinase 2 (Mus musculus, UniProt Q9JIA7); assay: Inhibition of mouse SphK2
T3 sequence (Q9JIA7 whole entry): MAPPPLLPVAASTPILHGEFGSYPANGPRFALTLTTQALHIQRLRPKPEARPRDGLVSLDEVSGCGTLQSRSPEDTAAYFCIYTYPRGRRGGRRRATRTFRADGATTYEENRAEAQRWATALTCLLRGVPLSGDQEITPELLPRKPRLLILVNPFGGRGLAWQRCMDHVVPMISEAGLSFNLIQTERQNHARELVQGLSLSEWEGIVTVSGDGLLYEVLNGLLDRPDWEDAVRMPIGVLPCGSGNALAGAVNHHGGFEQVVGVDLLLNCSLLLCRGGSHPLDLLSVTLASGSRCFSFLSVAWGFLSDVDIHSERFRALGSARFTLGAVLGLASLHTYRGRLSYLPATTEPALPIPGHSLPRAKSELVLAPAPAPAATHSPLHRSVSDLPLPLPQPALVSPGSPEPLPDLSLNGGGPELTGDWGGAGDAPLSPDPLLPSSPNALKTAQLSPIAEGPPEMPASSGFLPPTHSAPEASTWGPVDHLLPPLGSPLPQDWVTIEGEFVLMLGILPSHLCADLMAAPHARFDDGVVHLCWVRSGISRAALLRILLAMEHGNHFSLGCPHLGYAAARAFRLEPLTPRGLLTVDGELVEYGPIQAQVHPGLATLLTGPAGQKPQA

[10] = Fraction unbound in human plasma by ultra-centrifugation method; assay type: ADME, cell-free
[11] = Mean residence time in mouse at 5 mg/kg, po; assay type: ADME, organism-based; set-up: dose 5 mg/kg, route oral; conditions: in vivo
[12] = Clearance in mouse at 5 mg/kg, po; assay type: ADME, organism-based; set-up: dose 5 mg/kg, route oral; conditions: in vivo
[13] = Oral bioavailability in mouse at 5 mg/kg; assay type: ADME, organism-based; conditions: in vivo

T2 sequence (Q9NYA1 whole entry): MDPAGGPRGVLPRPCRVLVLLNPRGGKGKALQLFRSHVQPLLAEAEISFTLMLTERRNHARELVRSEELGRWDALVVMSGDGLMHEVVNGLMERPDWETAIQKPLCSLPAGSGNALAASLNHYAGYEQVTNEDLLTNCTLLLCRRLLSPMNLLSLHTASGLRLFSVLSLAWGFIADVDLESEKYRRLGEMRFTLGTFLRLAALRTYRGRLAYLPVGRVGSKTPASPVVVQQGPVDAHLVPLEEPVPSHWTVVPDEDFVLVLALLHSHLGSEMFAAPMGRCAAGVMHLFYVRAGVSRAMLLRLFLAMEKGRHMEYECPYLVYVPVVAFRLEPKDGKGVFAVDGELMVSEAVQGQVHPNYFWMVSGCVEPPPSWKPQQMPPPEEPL
Chain of Sphingosine kinase 1 (Mus musculus, UniProt Q8CI15) (Q8CI15 whole entry): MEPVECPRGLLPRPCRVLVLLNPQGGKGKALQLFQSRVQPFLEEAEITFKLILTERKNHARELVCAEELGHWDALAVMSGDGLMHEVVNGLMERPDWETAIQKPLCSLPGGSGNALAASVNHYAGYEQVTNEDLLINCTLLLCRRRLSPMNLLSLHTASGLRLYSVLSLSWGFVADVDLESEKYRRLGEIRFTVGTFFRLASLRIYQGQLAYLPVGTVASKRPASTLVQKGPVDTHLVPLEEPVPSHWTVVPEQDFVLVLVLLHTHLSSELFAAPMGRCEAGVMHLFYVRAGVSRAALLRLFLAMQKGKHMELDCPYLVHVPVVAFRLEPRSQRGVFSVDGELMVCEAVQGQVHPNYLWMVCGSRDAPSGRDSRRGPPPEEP

SMILES | IC50 (Sphingosine kinase 2 [1]) [nM] | IC50 (Sphingosine kinase 1 [2]) [nM] | other results
CCCCCCCCCCCCc1ccc(C(=O)NC2(C(=N)N)CC2)cc1 |  |  | Ki (Sphingosine kinase 2 [1]): 500 nM; Ki (Sphingosine kinase 1 [2]): 200 nM
N=C(N)[C@@H]1CCCN1C(=O)c1ccc(-c2nc(-c3cccc(CCC4CCCCC4)c3)co2)cc1 |  |  | Ki (Sphingosine kinase 2 [1]): 4200 nM; Ki (Sphingosine kinase 1 [2]): 50 nM
CCCCc1ccc(/C=C/[C@H](O)[C@@H](CO)NC)cc1 |  |  | Ki (Sphingosine kinase 2 [1]): > 100000 nM; Ki (Sphingosine kinase 1 [2]): 10000 nM
OC[C@H]1C[C@@H](O)CCN1CCc1ccc(Nc2nc(C3CCCC3)cs2)cc1 | > 5000 | 130 | EC50 (Sphingosine kinase 1 [3]): 850 nM
OC[C@H]1C[C@@H](O)CCN1CCc1ccc(Nc2nc(-c3ccc(Cl)cc3Cl)cs2)cc1 |  |  | clearance [4]: 21.7 mL/min/kg; fraction unbound [5]: 0.01; MRT [6]: 14 h; IC50 (Sphingosine kinase 1 [7]): 20 nM; Vd [8]: 18 L/kg; IC50 (Sphingosine kinase 2 [9]): > 10000 nM; fraction unbound [10]: 0.02
OC[C@H]1C[C@@H](O)CCN1CCc1ccc(Nc2nc(-c3cccc(C(F)(F)F)c3F)cs2)cc1 |  | 5 | EC50 (Sphingosine kinase 1 [3]): 250 nM
O=S1(=O)CCN(CCc2ccc(Nc3nc(-c4ccc(Cl)c(Cl)c4)cs3)cc2)C(CO)C1 (configuration not stated) | 3000 |  | 
OC[C@H]1C[C@@H](O)CCN1CCCc1ccc(Nc2nc(-c3ccc(Cl)c(Cl)c3)cs2)cc1 | > 10000 | 2500 | 
OC[C@H]1C[C@@H](O)CN1CCc1ccc(Nc2nc(-c3ccc(Cl)c(Cl)c3)cs2)cc1 | 90 |  | clearance [4]: > 233 mL/min/kg; Vd [8]: > 100 L/kg
OC[C@H]1C[C@@H](O)CN1CCCc1ccc(Nc2nc(-c3ccc(Cl)c(Cl)c3)cs2)cc1 | 270 | 30 | clearance [4]: > 233 mL/min/kg; Vd [8]: > 100 L/kg
OC[C@H]1C[C@H](O)CN1CCc1ccc(Nc2nc(-c3ccc(Cl)c(Cl)c3)cs2)cc1 | 250 |  | clearance [4]: > 233 mL/min/kg; Vd [8]: > 100 L/kg
OC[C@H]1C[C@H](O)CN1CCCc1ccc(Nc2nc(-c3ccc(Cl)c(Cl)c3)cs2)cc1 | 90 | 30 | clearance [4]: > 233 mL/min/kg; Vd [8]: > 100 L/kg
OC[C@H]1CCCCN1CCc1ccc(Nc2nc(-c3cccc(Cl)c3)cs2)cc1 |  | 270 | 
N#Cc1ccc(-c2csc(Nc3ccc(CCN4CCCC[C@@H]4CO)cc3)n2)cc1 |  | > 10000 | 
OC[C@H]1C[C@@H](O)CCN1CCc1ccc(Nc2nc(-c3ccccc3)cs2)cc1 |  | 70 | EC50 (Sphingosine kinase 1 [3]): 310 nM
OC[C@H]1C[C@@H](O)CCN1CCc1ccc(Nc2nc(-c3cccc(F)c3)cs2)cc1 | > 5000 |  | 
OC[C@H]1C[C@@H](O)CCN1CCc1ccc(Nc2nc(-c3ccc(Cl)cc3)cs2)cc1 |  | 8 | EC50 (Sphingosine kinase 1 [3]): 130 nM
Cc1ccc(-c2csc(Nc3ccc(CCN4CC[C@H](O)C[C@@H]4CO)cc3)n2)cc1 |  | 7 | 
OC[C@H]1C[C@@H](O)CCN1CCc1ccc(Nc2nc(-c3ccc(C(F)(F)F)cc3)cs2)cc1 |  |  | clearance [4]: 23.3 mL/min/kg; fraction unbound [5]: 0.03; MRT [6]: 12 h; MRT [11]: 13 h; IC50 (Sphingosine kinase 1 [7]): 70 nM; Vd [8]: 17 L/kg; CL/F [12]: 11.7 mL/min/kg; bioavailability [13]: 32%; fraction unbound [10]: 0.04
CCCCc1csc(Nc2ccc(CCN3CC[C@H](O)C[C@@H]3CO)cc2)n1 | > 5000 | 70 | EC50 (Sphingosine kinase 1 [3]): 370 nM
CC(C)(C)c1csc(Nc2ccc(CCN3CC[C@H](O)C[C@@H]3CO)cc2)n1 | > 10000 | > 5000 | 

More lines, main results first:

IC50 (Sphingosine kinase 2 [1]) [nM] | IC50 (Sphingosine kinase 1 [2]) [nM] | SMILES | other results
2500 | 990 | OC[C@@H]1CCCN1CCc1ccc(Nc2nc(-c3ccc4ccccc4c3)cs2)cc1 | 
2500 |  | OCC1CCN1CCc1ccc(Nc2nc(-c3ccc4ccccc4c3)cs2)cc1 (configuration not stated) | 
2700 | 580 | OC[C@H]1CCCN1CCc1ccc(Nc2nc(-c3ccc4ccccc4c3)cs2)cc1 | 
5700 |  | COC[C@H]1CCCN1CCc1ccc(Nc2nc(-c3ccc4ccccc4c3)cs2)cc1 | 
 | 140 | OCC1CCCCN1CCc1ccc(Nc2nc(-c3ccc4ccccc4c3)cs2)cc1 (configuration not stated) | 
> 10000 |  | OCC1CCCCCN1CCc1ccc(Nc2nc(-c3ccc4ccccc4c3)cs2)cc1 (configuration not stated) | 
> 10000 | > 10000 | OCCC1CCCCN1CCc1ccc(Nc2nc(-c3ccc4ccccc4c3)cs2)cc1 (configuration not stated) | 
1700 |  | CN1CCN(CCc2ccc(Nc3nc(-c4ccc5ccccc5c4)cs3)cc2)C(CO)C1 (configuration not stated) | 
> 10000 |  | OCC1COCCN1CCc1ccc(Nc2nc(-c3ccc4ccccc4c3)cs2)cc1 (configuration not stated) | 
 | 80 | OC[C@H]1CCCCN1CCc1ccc(Nc2nc(-c3ccc4ccccc4c3)cs2)cc1 | 
 | 1100 | OC[C@@H]1CCCCN1CCc1ccc(Nc2nc(-c3ccc4ccccc4c3)cs2)cc1 | 
 | 80 | OC[C@H]1CCCCN1CCc1ccc(Nc2nc(-c3ccc(Cl)cc3)cs2)cc1 | 
